Measured values as given in paper PMC9481570, “A small molecule antagonist of SMN disrupts the interaction between SMN and RNAP II” (Nature Communications, 2022).
Where “and” joins values, the source holds several entries; their conditions need not be identical. Equal entries are not always repeated. Where two headings read alike, the source gives them in different places.

Legend:
PHF1 = target: T1, PHF1 (Homo sapiens, UniProt O43189); experiment: ITC binding to PHF1; conditions: Fig. 1c
T1 construct: PHF1 (aa 28–87); His (N, cleaved yes); made in house; host or cells: E. coli BL21 (DE3) Codon plus RIL
Text: (§1) The coding DNA fragments of following Tudor domains were cloned into pET28-MHL vector: SMN (aa 82–147), UHRF1 (aa 126–285), SMNDC1 (aa 53–130), TDRD3 (aa 554–611), SND1 (aa 650–910), TDRD2 (aa 327–420), FXR1 (aa 2–132), PHF1 (aa 28–87), SGF29 (aa 115–293), JMJD2A (aa 897–1101), 53BP1 (aa 1483–1606), SETDB1 (aa 190–410), LBR (aa 1–67), ZGPAT (aa 120–271). The coding regions of chromodomain of CBX7 (aa 8–62), PWWP domain of DNMT3A (aa 275–417), WD40 repeats of WDR5 (aa 24–334) and CW domain of ZCWPW2 (aa 21–78) were also subcloned into pET28-MHL vector to generate N-terminally His-tagged fusion protein. The MBT repeats of L3MBTL1 (aa 200–522) and L3MBTL2 (aa 170–625) were subcloned into pET28GST-LIC vector to generate N-terminally GST-His-tagged fusion protein. All the plasmids were generated by ligase independent cloning (Vazyme Biotech, C112 or ABclonal Technology, RK21020). […] The molecular weight of all protein samples was measured by mass spectrometry.
(§2) For the ITC measurement, the concentrated proteins were diluted into 20 mM Tris-HCl, pH 7.5, 150 mM NaCl (ITC buffer); the lyophilized compounds were dissolved in the same buffer, and the pH value was adjusted by adding 2 M NaOH or 2 M HCl. […] Compound concentrations were calculated from the mass and the volume of the solvent. […]

L3MBTL2 (MBT) = target: T2, L3MBTL2 (MBT) (Homo sapiens, UniProt Q969R5); experiment: ITC binding to MBT repeats of L3MBTL2; conditions: Fig. 1c
T2 construct: L3MBTL2 (aa 170–625); GST-His (N, cleaved yes); made in house; host or cells: E. coli BL21 (DE3) Codon plus RIL
Text: as §1, §2

[1] = target: T3, UHRF1 tandem Tudor domain (TTD) (Homo sapiens, UniProt Q96T88); experiment: ITC binding to tandem Tudor domain of UHRF1
T3 construct: UHRF1 (aa 126–285); His (N, cleaved yes); made in house; host or cells: E. coli BL21 (DE3) Codon plus RIL
T3 sequence (Q96T88 126-285): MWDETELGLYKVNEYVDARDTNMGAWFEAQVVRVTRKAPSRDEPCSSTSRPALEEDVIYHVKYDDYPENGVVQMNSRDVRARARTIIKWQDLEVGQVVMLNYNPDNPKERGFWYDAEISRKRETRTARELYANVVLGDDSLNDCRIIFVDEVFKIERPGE
Text: (§3) The coding DNA fragments of following Tudor domains were cloned into pET28-MHL vector: SMN (aa 82–147), UHRF1 (aa 126–285), SMNDC1 (aa 53–130), TDRD3 (aa 554–611), SND1 (aa 650–910), TDRD2 (aa 327–420), FXR1 (aa 2–132), PHF1 (aa 28–87), SGF29 (aa 115–293), JMJD2A (aa 897–1101), 53BP1 (aa 1483–1606), SETDB1 (aa 190–410), LBR (aa 1–67), ZGPAT (aa 120–271). The coding regions of chromodomain of CBX7 (aa 8–62), PWWP domain of DNMT3A (aa 275–417), WD40 repeats of WDR5 (aa 24–334) and CW domain of ZCWPW2 (aa 21–78) were also subcloned into pET28-MHL vector to generate N-terminally His-tagged fusion protein. The MBT repeats of L3MBTL1 (aa 200–522) and L3MBTL2 (aa 170–625) were subcloned into pET28GST-LIC vector to generate N-terminally GST-His-tagged fusion protein. All the plasmids were generated by ligase independent cloning (Vazyme Biotech, C112 or ABclonal Technology, RK21020). […] The proteins were further purified by Superdex75 or Superdex200 gel-filtration column (GE Healthcare) in a buffer containing 20 mM Tris-HCl, pH 7.5, 150 mM NaCl and 1 mM DTT. For crystallization experiments, purified proteins were concentrated to 18 mg/mL for SMN, 23 mg/mL for UHRF1 and 10 mg/mL for TDRD3 in the gel-filtration buffer. All the mutations were introduced with the QuikChange II XL site-directed mutagenesis kit (Stratagene, 200522) and confirmed by DNA sequencing. Mutant proteins were also expressed in E. coli BL21 (DE3) Codon plus RIL and purified using the same procedures described above. The molecular weight of all protein samples was measured by mass spectrometry.
(§4) For the ITC measurement, the concentrated proteins were diluted into 20 mM Tris-HCl, pH 7.5, 150 mM NaCl (ITC buffer); the lyophilized compounds were dissolved in the same buffer, and the pH value was adjusted by adding 2 M NaOH or 2 M HCl. The compounds that could not be dissolved in the ITC buffer were dissolved in DMSO with the accessible highest concentration. Compound concentrations were calculated from the mass and the volume of the solvent. For the ITC assay with compound dissolved in DMSO, the protein was diluted by ITC buffer containing same final concentration of DMSO. All measurements were performed in duplicate at 25 °C, using a VP-ITC (MicroCal, Inc.), an iTC-200 (MicroCal, Inc.), or a Nano-ITC (TA, Inc.) microcalorimeter. The protein with a concentration of 50–100 μM was placed in the cell chamber, and the compounds with a concentration of 0.5–2 mM in syringe was injected in 25, 20, or 20 successive injections with a spacing of 180, 150, or 120 s for VP-ITC, iTC-200, or Nano-ITC, respectively, as previously described[30]–[32]. iTC-200 or Nano-ITC data were consistent with those from the VP-ITC instrument, based on ITC results of SMN-compound 1 detected by using all the instruments. Control experiments were performed under identical conditions to determine the heat signals that arise from injection of the compounds into the buffer. Data were fitted using the single-site binding model within the Origin software 7.0 package (MicroCal, Inc.) or the independent model within the Nano-Analyze software package (TA, Inc.).

SMN Tudor domain = target: T4, SMN Tudor domain (Homo sapiens, UniProt Q16637); experiment: ITC binding to Tudor domain of SMN
T4 construct: SMN (aa 82–147); His (N, cleaved yes); made in house; host or cells: E. coli BL21 (DE3) Codon plus RIL
Text: as §3, §4

53BP1 = target: T5, 53BP1 (Homo sapiens, UniProt Q12888); experiment: ITC binding to 53BP1; conditions: Fig. 1c
T5 construct: 53BP1 (aa 1483–1606); His (N, cleaved yes); made in house; host or cells: E. coli BL21 (DE3) Codon plus RIL
Text: as §1, §2

[2] = ITC, Tudor domain of SMN wild type, 25 °C, read-out: Kd (SMN)

T4 sequence (Q16637 82-147): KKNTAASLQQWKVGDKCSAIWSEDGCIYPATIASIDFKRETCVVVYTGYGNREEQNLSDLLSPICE
T2 sequence (Q969R5 170-625): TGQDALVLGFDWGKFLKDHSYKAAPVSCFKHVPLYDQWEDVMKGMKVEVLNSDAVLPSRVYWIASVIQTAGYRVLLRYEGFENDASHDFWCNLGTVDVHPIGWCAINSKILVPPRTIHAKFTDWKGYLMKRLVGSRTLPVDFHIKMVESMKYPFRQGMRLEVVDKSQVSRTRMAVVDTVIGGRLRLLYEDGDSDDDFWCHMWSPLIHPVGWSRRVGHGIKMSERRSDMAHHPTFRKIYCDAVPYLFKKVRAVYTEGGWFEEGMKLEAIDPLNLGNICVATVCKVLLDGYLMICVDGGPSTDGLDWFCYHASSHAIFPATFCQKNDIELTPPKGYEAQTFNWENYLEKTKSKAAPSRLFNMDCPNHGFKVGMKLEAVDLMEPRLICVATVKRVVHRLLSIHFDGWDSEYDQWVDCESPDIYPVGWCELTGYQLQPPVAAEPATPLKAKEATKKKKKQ
T1 sequence (O43189 28-87): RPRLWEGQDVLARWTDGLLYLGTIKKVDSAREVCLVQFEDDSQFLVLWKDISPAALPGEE
T5 sequence (Q12888 1483-1606): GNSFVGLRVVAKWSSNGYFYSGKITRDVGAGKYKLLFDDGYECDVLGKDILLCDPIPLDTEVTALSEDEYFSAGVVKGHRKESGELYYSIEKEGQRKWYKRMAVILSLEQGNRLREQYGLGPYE

SMILES	Kd (PHF1) [µM]	Kd (L3MBTL2 (MBT)) [µM]	Kd [1]	Kd (SMN Tudor domain; [2]) [µM]	Kd (SMN Tudor domain; Supplementary Fig. 11a, iTC-200, read-out: Kd, ITC binding curve, SMN) [µM]	selectivity of SMN and SMNDC1 Tudor domains over TDRD3 (SMN Tudor domain; from ITC Kd)	selectivity over other tested methyllysine or methylarginine binding domains (SMN Tudor domain; from ITC Kd) [fold]	SMN binds more tightly than its physiological ligands (SMN Tudor domain; versus symmetric dimethylarginine or R1810me2s-POLR2A)	Kd (53BP1) [µM]	Kd (UHRF1) [1]
Cn1c2c(c(=N)c3c1CCC3)CCC2 [Compound 1, 4-methyl-2,3,4,5,6,7-hexahydrodicyclopenta[b,e]pyridin-8(1H)-imine]	> 244	> 244	~16 µM and 16 µM	2.6 ± 0.1	3.9 ± 0.5	~ 4 fold	> 4	60–180 fold	> 244	–
CCCn1c2c(c(=N)c3c1CCC3)CCC2 [Compound 2, 4-propyl-2,3,4,5,6,7-hexahydrodicyclopenta[b,e]pyridin-8(1H)-imine]	–	–	–	9.3 ± 0.6	–	–	–	–	–	No binding
